Series [1] concerns the target human lysosomal acid-α-glucosidase (Homo sapiens, UniProt P10253). Kind of series: α-glucosidase inhibition assay. Format: biochemical.
Series [2] addresses T1, human pancreatic α-amylase (Homo sapiens, UniProt P04746).
T1 sequence (P04746 16-511): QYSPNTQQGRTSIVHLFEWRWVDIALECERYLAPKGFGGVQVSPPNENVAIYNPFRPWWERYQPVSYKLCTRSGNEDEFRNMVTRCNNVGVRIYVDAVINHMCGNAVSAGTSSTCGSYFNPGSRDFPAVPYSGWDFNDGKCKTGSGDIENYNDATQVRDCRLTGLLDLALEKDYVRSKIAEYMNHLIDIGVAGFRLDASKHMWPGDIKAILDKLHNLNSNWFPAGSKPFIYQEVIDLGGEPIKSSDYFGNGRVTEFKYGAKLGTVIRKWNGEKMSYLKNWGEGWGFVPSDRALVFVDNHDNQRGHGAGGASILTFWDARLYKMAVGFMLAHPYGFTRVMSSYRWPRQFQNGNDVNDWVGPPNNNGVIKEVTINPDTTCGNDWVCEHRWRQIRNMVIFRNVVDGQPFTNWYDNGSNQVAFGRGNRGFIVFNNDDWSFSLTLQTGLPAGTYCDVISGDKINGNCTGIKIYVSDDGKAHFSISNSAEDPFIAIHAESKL
Kind of series: α-amylase inhibition assay. The series is classed as biochemical.

The target of a further series is T2, α-amylase (Homo sapiens, UniProt P04746).
T2 sequence (P04746 16-511): T1 sequence (P04746 16-511)
The series is described as follows: enzymatic kinetic study on α-amylase. The series is classed as biochemical. To be noted: for mode of α-amylase inhibition: Lineweaver-Burk plot.

A further series has as its target α-glucosidase (Homo sapiens, UniProt P10253). The series is described as follows: enzymatic kinetic study on α-glucosidase. Format: biochemical. Particulars: for mode of α-glucosidase inhibition: Lineweaver-Burk plot.
Another series has as its system female mice. Kind of series: acute oral toxicity. The series is classed as in vivo. Particulars: three female mice.

“Also recorded” adds a separate entry of the source.

On to `CC(C)[C@@H]1CC[C@@H](C)C[C@@]12N(C)C(=O)[C@@H]1C[C@@H](Cc3cccc(/C=N/NC(=O)Nc4ccccc4)c3O)ON12` [5a], for which the values for the IC50 in series [1] and in series [2] were 263 ± 12.2 µM and 151 ± 7.4 µM, respectively.

For the compound `CC(C)[C@@H]1CC[C@@H](C)C[C@@]12N(C)C(=O)[C@@H]1C[C@@H](Cc3cccc(/C=N/NC(=S)Nc4ccccc4)c3O)ON12` [5b], the figures for the 50% inhibitory concentration (IC50) in series [1] and in series [2] were 286 ± 13.5 µM and 198 ± 9.5 µM, respectively.

Take `CCNC(=S)N/N=C/c1cccc(C[C@@H]2C[C@H]3C(=O)N(C)[C@@]4(C[C@H](C)CC[C@H]4C(C)C)N3O2)c1O` [5c]: the figures for the 50% inhibitory concentration (IC50) in series [1] and in series [2] were 203 ± 10 µM and 73.1 ± 3.31 µM, respectively.

As to `CC(C)[C@@H]1CC[C@@H](C)C[C@@]12N(C)C(=O)[C@@H]1C[C@@H](Cc3cccc(/C=N/NC(=S)N(C)C)c3O)ON12` [5d], the IC50 (usually the midpoint of a concentration-inhibition curve) turned out to be 98.6 ± 4.35 µM in series [1] and 58.8 ± 2.22 µM in series [2].

As to `CC(C)[C@@H]1CC[C@@H](C)C[C@@]12N(C)C(=O)[C@@H]1C[C@@H](Cc3cccc(/C=N/NC(N)=S)c3O)ON12` [5e], the figures for the IC50 in series [1] and in series [2] were 49.3 ± 2.19 µM and 33.9 ± 1.09 µM, respectively.

Regarding `CC(C)[C@@H]1CC[C@@H](C)C[C@@]12N(C)C(=O)[C@@H]1C[C@@H](Cc3cccc(/C=N/NC(N)=O)c3O)ON12` [5f], on α-amylase, the affinity corresponds to a Ki of 24.9 µM and the “mode of α-amylase inhibition” value is “competitive inhibition”. For the same compound, the IC50 in series [1] is 39.1 ± 1.83 µM. The “fold improvement over acarbose, α-glucosidase” value in series [1] (versus acarbose IC50) is approximately 20 fold. Besides, inhibition in series [2] was half-maximal at 26.7 ± 1.25 µM (IC50). Further, in series [2] (versus acarbose IC50), the “fold improvement over acarbose, α-amylase” value is given as “about 11 fold”. On α-glucosidase, affinity was put at a Ki of 37 µM and the “mode of α-glucosidase inhibition” value was “competitive; also recorded: compete with the substrate for binding to the active site”. The “survival at 1600 mg/kg b.w.” value in the series with female mice (1600 mg/kg b.w.) was “only one mouse was survived”. For the same compound, in the series with female mice, the “dose with no toxicity (no significant adverse effects or mortality)” value is reported as “up to 1000 mg/kg b.w”.

As for `CNC(=S)N/N=C/c1cccc(C[C@@H]2C[C@H]3C(=O)N(C)[C@@]4(C[C@H](C)CC[C@H]4C(C)C)N3O2)c1O` [5g], the values for the IC50 in series [1] and in series [2] were 158 ± 7.09 µM and 64.2 ± 3.15 µM, respectively.

Turning to `C[C@H]1O[C@H](O[C@H]2[C@H](O)[C@@H](O)[C@@H](O[C@H]3[C@H](O)[C@@H](O)C(O)O[C@@H]3CO)O[C@@H]2CO)[C@H](O)[C@@H](O)[C@@H]1N[C@H]1C=C(CO)[C@@H](O)[C@H](O)[C@H]1O` (stereo partly drawn) [Acarbose, reference compound], the “mode of α-amylase inhibition” value on α-amylase was “competitive”. In addition, on α-glucosidase, the “mode of α-glucosidase inhibition” value is on record as “competitive; also recorded: compete with the substrate for binding to the active site”.

These data come from publication PMC11619978 (Heliyon, 2024).
